# In article PMC10056008 (Pharmaceuticals, 2023):
# Where two headings read alike, the source gives them in different places.
# Columns and labels:
# recombinant CES1A1 = conditions: cited from earlier work
# coagulation = test: Coagulation assay (aPTT, PT, dPT, TT, fibrinogen) in plasma of dosed subjects; format: in vivo, human
# Method: An open-label, two-period, single sequence clinical study was conducted. After an overnight fast and drinking 200 mL of water one hour before drug administration, eligible subjects were administered with a capsule of dabigatran etexilate 150 mg ([…]®) on the first day of the study. Blood samples for pharmacokinetic and pharmacodynamic analyses were obtained using EDTA tubes and citrate tubes, respectively. […] Subjects remained at fasting stage until 4 h after the administration. […] To ensure compliance, subjects visited the study site for every drug administration. […] Blood samples were obtained at the same time point scheduled as the first day of the study. Adverse events were collected during the entire study period. This study was conducted in accordance with the Declaration of Helsinki, good clinical practice, and local regulation. The study was approved by the Institutional Review Board at Korea University Guro Hospital (2018GR0336, date of approval: 11 October 2018) and registered at ClinicalTrials.gov (NCT03728101). Anticoagulant assays of aPTT, PT, dPT, TT, and fibrinogen were measured using STA® Compact Max (Stago, Asnieres, France) according to the manufacturer's instructions. […] To measure aPTT, 50 μL of plasma sample was placed in a cuvette in the presence of STA®-PTT (50 μL) and 50 μL of 0.025 M CaCl2. For fibrinogen, 7.5 μL of plasma which was automatically diluted with Owren-Koller buffer was placed into a cuvette and then 50 μL of […] was added. For pharmacodynamic assessment, Phoenix Winnonlin® version 8.3 (Pharsight, Mountain View, CA, USA) was used to calculate AUEC with the linear trapezoidal method and Rmax was directly determined from individual profiles.
# CES1 = conditions: in vitro; cited from earlier work
# [1] = cited from earlier work
# thrombin generation = test: Thrombin generation assay (TGA) in plasma of dosed subjects; format: in vivo, human
# Method: An open-label, two-period, single sequence clinical study was conducted. After an overnight fast and drinking 200 mL of water one hour before drug administration, eligible subjects were administered with a capsule of dabigatran etexilate 150 mg ([…]®) on the first day of the study. Blood samples for pharmacokinetic and pharmacodynamic analyses were obtained using EDTA tubes and citrate tubes, respectively. […] Subjects remained at fasting stage until 4 h after the administration. […] To ensure compliance, subjects visited the study site for every drug administration. […] Blood samples were obtained at the same time point scheduled as the first day of the study. Adverse events were collected during the entire study period. This study was conducted in accordance with the Declaration of Helsinki, good clinical practice, and local regulation. […] TGA was performed using a Technothrombin® TGA kit (Technoclone, Vienna, Austria) on a fully automated, computer-controlled microplate reader (Flexstation 3; Molecular Devices, San Jose, CA, USA) with a 360 nm excitation wavelength and 460 nm emission wavelength. In brief, 30 μL of plasma samples were mixed with 25 μL of 400 μmol/L fluorogenic substrate ([…]; Bachem, Bubendorf, Switzerland). The assay was initiated by dispensing 10 μL of 5 pmol/L recombinant human tissue factor lipidated with synthetic phospholipids and 10 μL of 15 mmol/L CaCl2. TGA results are expressed as Cmax, AUC, Tmax, and lag time. For pharmacodynamic assessment, Phoenix Winnonlin® version 8.3 (Pharsight, Mountain View, CA, USA) was used to calculate AUEC with the linear trapezoidal method and Rmax was directly determined from individual profiles.
# [2] = Adverse events, vital signs, clinical laboratory tests, electrocardiogram; format: in vivo, human; conditions: 12 healthy subjects; except one subject with mild pharyngitis, which resolved
# Method: An open-label, two-period, single sequence clinical study was conducted. After an overnight fast and drinking 200 mL of water one hour before drug administration, eligible subjects were administered with a capsule of dabigatran etexilate 150 mg ([…]®) on the first day of the study. Blood samples for pharmacokinetic and pharmacodynamic analyses were obtained using EDTA tubes and citrate tubes, respectively. […] Subjects remained at fasting stage until 4 h after the administration. […] To ensure compliance, subjects visited the study site for every drug administration. […] Blood samples were obtained at the same time point scheduled as the first day of the study. Adverse events were collected during the entire study period. This study was conducted in accordance with the Declaration of Helsinki, good clinical practice, and local regulation.
# [3] = Pharmacokinetics of dabigatran etexilate, dabigatran and dabigatran acylglucuronide in plasma after 150 mg dabigatran etexilate with or without simvastatin; format: in vivo, human
# Method: An open-label, two-period, single sequence clinical study was conducted. After an overnight fast and drinking 200 mL of water one hour before drug administration, eligible subjects were administered with a capsule of dabigatran etexilate 150 mg ([…]®) on the first day of the study. Blood samples for pharmacokinetic and pharmacodynamic analyses were obtained using EDTA tubes and citrate tubes, respectively. […] Subjects remained at fasting stage until 4 h after the administration. […] To ensure compliance, subjects visited the study site for every drug administration. […] Blood samples were obtained at the same time point scheduled as the first day of the study. Adverse events were collected during the entire study period. This study was conducted in accordance with the Declaration of Helsinki, good clinical practice, and local regulation. The study was approved by the Institutional Review Board at Korea University Guro Hospital (2018GR0336, date of approval: 11 October 2018) and registered at ClinicalTrials.gov (NCT03728101). Separate plasma samples were kept frozen below -70 °C until analysis. Plasma concentrations of dabigatran etexilate, dabigatran, and dabigatran acylglucuronide were quantified using a high-performance liquid chromatography (Nanospace series SI-2, Shiseido Co., Ltd., Tokyo, Japan) coupled with tandem mass spectrometry (API4000, AB SCIEX LLC, Framingham, MA, USA) method. The method was validated in terms of selectivity, linearity, precision, accuracy, recovery, matrix effect, and stability prior to the analysis. In brief, 100 μL of plasma samples were deproteinized using 400 μL of acetonitrile and centrifuged at 13,000× g for 20 min. Dabigatran-d3 was used as an internal standard. The supernatants were evaporated and then dissolved in a 300 μL mobile phase consisting of acetonitrile and 10 mM ammonium formate (215:85, v/v). These samples were injected onto an Atlantis HILIC SilicaTM column (2.1 mm × 150 mm, 3 μm, Waters, Milford, MA, USA) at a flow rate of 0.3 mL/min. The mass spectrometer equipped with an electrospray ionization source was operated in a positive ion mode. Selected ion pairs of m/z 629.464→290.100 for dabigatran etexilate, m/z 472.300→289.100 for dabigatran, m/z 648.382→289.100 for dabigatran acylglucuronide were detected. […] Pharmacokinetic parameters of dabigatran etexilate, dabigatran, and dabigatran acylglucuronide were derived from noncompartmental analysis using Phoenix Winnonlin® version 8.3 (Certara, Princeton, NJ, USA). Observed values from individual time-concentration profiles were used for Cmax and Tmax. Area under the time-concentration curve (AUC) was calculated using linear-up log-down trapezoidal rule. The AUC from 0 h to infinity (AUCinf) was calculated as follows: AUCinf = AUC + Ct/ke, where Ct was the last plasma concentration and ke was the elimination rate constant. […] Mean residence time (MRT) was calculated as area under the moment curve from time of dosing to the last measurable concentration divided by AUClast. All statistical analyses were performed using SAS® version 9.4 (SAS Institute Inc., Cary, NC, USA). Descriptive statistics were used to summarize demographic, pharmacokinetic, and pharmacodynamic data. A linear mixed effects model was used to compare Cmax, AUClast, and AUCinf between two treatment periods.
# [4] = before dabigatran etexilate administration, period with simvastatin 40 mg once daily, mean (SD)
# [5] = before vs after once daily simvastatin for 7 days
# [6] = co-administered with simvastatin vs alone
# [7] = human, oral, 150 mg dabigatran etexilate alone, plasma, mean (SD)
smiles,measurement,setting,value
CCC(C)(C)C(=O)O[C@H]1C[C@@H](C)C=C2C=C[C@H](C)[C@H](CC[C@@H]3C[C@@H](O)CC(=O)O3)[C@H]21 [Simvastatin],effect on imidapril hydrolase activity,recombinant CES1A1,inhibitory effects
same,"Fibrinogen, baseline",coagulation; [4],259.3 (39.4) mg/dL
same,"PT (INR), baseline",coagulation; [4],1.0 (0.1) INR
same,"PT, baseline",coagulation; [4],13.7 (0.6) s
same,"TT, baseline",coagulation; [4],16.2 (0.9) s
same,"aPTT, baseline",coagulation; [4],40.4 (3.3) s
same,"dPT, baseline",coagulation; [4],43.2 (1.8) s
same,"anticoagulant effect of simvastatin without dabigatran, coagulation assays",coagulation; [5],no significant difference
same,effect on CES1-mediated hydrolysis of clopidogrel,CES1,can inhibit
same,elimination half-life,[1],about 2.8 h
same,"Thrombin Generation Assay AUC (endogenous thrombin potential), baseline",thrombin generation; [4],4073.1 (642.2) nM∙min
same,"Thrombin Generation Assay Tmax, baseline",thrombin generation; [4],7.3 (0.8) min
same,"Thrombin Generation Assay lag time, baseline",thrombin generation; [4],3.5 (0.5) min
same,"anticoagulant effect of simvastatin without dabigatran, thrombin generation",thrombin generation; [5],no significant difference
CCCCCCOC(=O)NC(=N)c1ccc(NCc2nc3cc(C(=O)N(CCC(=O)OCC)c4ccccn4)ccc3n2C)cc1 [Dabigatran etexilate],"time of highest mean value of aPTT, PT, dPT and TT",coagulation; after administration of dabigatran etexilate,2 to 4 h
same,absolute bioavailability,[1],7%
same,increase in exposure in mild renal impairment patients vs healthy subjects,[1]; single dose,1.5 times
same,"adverse events, vital signs, clinical laboratory tests, electrocardiogram",[2],no adverse events or clinically significant changes
same,CL/F,"[3]; 150 mg dabigatran etexilate alone, mean (SD)","12,208.4 (16,447.7) L/h"
same,CL/F,"[3]; co-administered with simvastatin 40 mg once daily, day 7, mean (SD)",5235.1 (2729.4) L/h
same,AUClast with simvastatin as % of value when administered alone,[3]; [6],147%
same,Cmax with simvastatin as % of value when administered alone,[3]; [6],138%
same,increase of AUClast after simvastatin co-administration,[3]; compared to dabigatran administered alone,47%
same,AUC(0-inf),[3]; [7],33.7 ng·h/mL
same,AUC(0-t),[3]; [7],26.1 ng·h/mL
same,half-life,"[3]; human, plasma, oral, 150 mg dabigatran etexilate alone, mean (SD)",3.4 h
same,Cmax,"[3]; human, plasma, oral, 150 mg dabigatran etexilate alone, mean (SD), read-out: Cmax",24.5 ng/mL
same,MRT,"[3]; human, plasma, oral, 150 mg dabigatran etexilate alone, mean (SD), read-out: MRT",1.9 h
same,Tmax,"[3]; human, plasma, oral, 150 mg dabigatran etexilate alone, median (min–max), read-out: Tmax",1 h
CCC(C)(C)C(=O)O[C@H]1C[C@@H](C)C=C2C=C[C@H](C)[C@H](CC[C@@H](O)C[C@@H](O)CC(=O)O)[C@H]21 [simvastatin acid],Time to reach Cmax (Tmax),"[1]; human, in vivo",~4.2 h
same,elimination half-life,"[1]; human, in vivo",~4.4 h
